This note sets out measurements from patent US20240148679A1, “METHODS AND COMPOSITIONS RELATED TO TREATMENT AND PREVENTION OF CANCER BY INHIBITION OF DGAT1 AND DGAT2” (Ohio State Innovation Foundation, priority 2019, published 2024).

Entries after “also recorded” stand apart in the source; their conditions may differ.

Data set [1] has as its system U87/EGFRvIII cells-derived subcutaneous model. Nature of the data set: U87/EGFRvIII subcutaneous xenograft model. It counts as in vivo, mice. The settings on record: 120 mg/kg/day. Here is the method: (§1) (A-C) The effects of the DGAT1 inhibitor […] (120 mg/kg/day, oral gavage, details in Methods) in U87/EGFRvIII cells (1×10^6 cells/mouse)- or GBM30-derived subcutaneous models (4×10^6 cells/mouse), as shown by tumor growth rate in A and final isolated tumor images and weights in B. Tumor tissues were analyzed for LD presence by IF (TIP47 staining) and CPT1A and cleaved Caspase 3 levels by IHC in C. LD numbers and protein levels in tumor tissues were quantified by ImageJ and averaged from 5 separate areas in each tumor. The results for protein levels were normalized to control tumors (mean±SEM). Statistical significance was determined by one-way ANOVA. * P<0.01 for comparison with control group. Scale bars, m for IF, 40 m for IHC.
(§2) It was next examined whether pharmacological inhibition of DGAT1 is effective in inhibiting GBM growth using U87/EGFRvIII and GBM30 xenograft models. Tumor cells were implanted in mice flanks and started treatment with DGAT1 inhibitor A-922500 (120 mg/kg/day) when tumor reached approximately 80 mm3.
(§3) Intracranial xenograft models were generated using female athymic nude (NCr-nu/nu) mice (6-8 weeks of age obtained from OSU Target Validation Shared Resource). U87EGFRvIII (1×10^6) cells infected with shDGAT1-, shDGAT2- or scramble shRNA-expressing lentivirus for 48 hr (suspended in 100 μl PBS) were implanted into mice flank to generate subcutaneous model. For intracranial xenograft model, U87EGFRvIII-luc (1×10^5) or GBM30-luc (1×10^5) cells infected with shDGAT1-, shDGAT2- or scramble shRNA-expressing lentivirus for 48 hours (suspended in 5 μl PBS) were implanted into mouse brains. Mice were observed until they became moribund, at which point they were sacrificed. For drug treatment, U87EGFRvIII (1×10^6 cells suspended in 100 μl PBS) or GBM30 cells (4×10^6 suspended in 100 μl PBS and then mixed with 100 μl matrigel) were implanted in mouse flanks. DGAT1 inhibitor A-922500 (120 mg/kg/day, oral gavage) was formulated by 1% Tween 80 in PBS and administrated to mice when tumor size reached approximately 80 mm^3.

Data set [2] concerns GBM30-derived subcutaneous model. The data set is described as follows: GBM30 subcutaneous xenograft model. It counts as in vivo, mice. As to conditions: 120 mg/kg/day. Here is the method:
as §1, §2, §3

The next data set has as its system U251 cells. The data set is described as follows: Mitochondrial membrane potential (Rhodamine 123). It counts as cell-based, human. As to conditions: 20 μg/ml, 24 hr. Here is the method: (A, B) Transmission electron microscopy analysis of the mitochondrial structure in U251cells treated with the DGAT1 inhibitor A-922500 (20 μg/ml) or DGAT2 inhibitor PF-06424439 (20 μg/ml) for 24 hr (A) or infected with shRNA-expressing lentivirus against DGAT1 for 48 hr (B). Scale bar, 500 nm. Mitochondria are indicated by arrows. (C) Representative fluorescence images of mitochondria in U251 cells treated with the DGAT1 inhibitor or DGAT2 inhibitor. Mitochondria were stained with MitoTracker Red. LDs were stained with BODIPY 493/503. Nuclei were stained with Hoechst 33342. Scale bar, 10 μm. (D) Representative fluorescence images of mitochondria in GBM cells infected with shRNA-expressing lentivirus against DGAT1 or DGAT2 for 48 hr. Mitochondria were stained with MitoTracker Red. LDs were stained with BODIPY 493/503. Nuclei were stained with Hoechst 33342. Scale bar, 10 μm. (E, F) Representative fluorescence image analysis of mitochondrial membrane potential stained with Rhodamine123 in U251 cells treated with the DGAT1 inhibitor A-922500 (20 μg/ml) for 24 hr or infected with shRNA-expressing lentivirus against DGAT1 for 48 hr. Nuclei were stained with Hoechst 33342. Scale bar, 10 μm. Rhodamine123 staining was quantified by ImageJ software in more than 100 cells. Statistical significance was determined by s t-test for inhibitor treatment or one-way ANOVA for shRNA knockdown. *P<0.0001. […]

A short description of data set [3]: Toxicity in treated mice (H&E of organs, body weight). It counts as in vivo. As to conditions: 120 mg/kg/day; for toxic effects in mouse liver, kidney and spleen (H&E staining): 13 days. Here is the method:
(A) The H&E staining of the liver, kidney and spleen of mice treated with the DGAT1 inhibitor A922500 (120 mg/kg/day, oral gavage) for 13 days. Scale bar, 50 μm. (B) The body weight of mice treated with vehicle or DGAT1 inhibitor A-922500 (120 mg/kg/day, oral gavage) for 13 days. The mice with DGAT1i treatment lost 8% weight at day 13 treatment compared with the mice weight at day 1.
Paraffin tissue sections were deparaffinized in xylene and rehydrated in degraded ethanol (100%, 95% and 70% ethanol), respectively. After washing with dH2O, slides were stained with hematoxylin and eosin solution in sequence followed by washing with dH2O. Then slides were dehydrated in degraded ethanol and immersed in xylene followed by mounting in Permount.
as §3

A further data set has as its system GBM cells. Nature of the data set: GBM cell death, trypan blue counting. It counts as cell-based, human. As to conditions: single inhibitor, 3 days.
Where [4] appears, read: oral gavage, listed as A-900225.

Regarding `O=C(Nc1ccccc1)Nc1ccc(-c2ccc(C(=O)[C@@H]3CCC[C@H]3C(=O)O)cc2)cc1` [A-922500], the “CPT1A expression in tumor tissues” value in data set [1] and in data set [2] was “significantly increased CPT1A expression” throughout. Also, the “LD formation in tumor tissues (TIP47)” value in data set [1] and in data set [2] was “dramatically suppressed LD formation” throughout. The “cleaved caspase 3 levels in tumor tissues” value in data set [1] and in data set [2] was “markedly elevated cleaved caspase 3 levels” each time. Also, the tumor growth result in data set [1] (oral gavage) is listed as “significantly suppressed tumor growth”; in data set [1] (setting [4]), “dramatically suppresses GBM tumor growth”; in data set [2] (oral gavage), “significantly suppressed tumor growth”; in data set [2] (setting [4]) it was “dramatically suppresses GBM tumor growth”. The tumor weight result in data set [1] (oral gavage) and in data set [2] (oral gavage) was “dramatic reduction in tumor weight” throughout. The mitochondria membrane potential result with U251 cells is “significantly reduced”. Also, the mice weight decrease entry in data set [3] (after 13 days, in comparison with vehicle control group) is “about 8%”. Moreover, the “toxicity in treated mice (overall)” value in data set [3] (oral gavage) is given as “does not induce noticeable toxic effects; also recorded: no obvious toxicity was observed”. The “toxic effects in mouse liver, kidney and spleen (H&E staining)” value is recorded as “did not observe any toxic effects” in data set [3] (oral gavage) and “no obvious toxic effects” in data set [3] (oral gavage, listed as A922500). In addition, the body weight loss in data set [3] (oral gavage, day 13 compared with day 1) turned out to be 8%. Further, the GBM cell death result in the data set on GBM cells is “greatly induced marked GBM cell death”.
